Measurements published in ChEMBL document CHEMBL1156543, “Identification of N-(4-piperidinyl)-4-(2,6-dichlorobenzoylamino)-1H-pyrazole-3-carboxamide (AT7519), a novel cyclin dependent kinase inhibitor using fragment-based X-ray crystallography and structure based drug design” (J Med Chem, 2008).

Experiments:
[1] = in vivo; conditions: BALB/c, mouse, plasma, iv, 0.2 mg/kg
[2] = molecular target: Cyclin-dependent kinase 2 (Homo sapiens, UniProt P24941)
Description: Inhibition of CDK2/Cyclin A by radiometric assay

[3] = molecular target: Cyclin-dependent kinase 1/cyclin B1 (Homo sapiens, UniProt P06493)
Description: Inhibition of CDK1/Cyclin B by radiometric assay

[4] = system: HCT-116; experiment: Antitumor activity against human HCT116 cells xenografted into SCID mouse at 18.2 mg/kg, ip bid for 10 days; type: functional; conditions: HCT-116, ip, 240 h, route intraperitoneal
[5] = system: HCT-116; experiment: Antitumor activity against human HCT116 cells xenografted into SCID mouse at 9.1 mg/kg, ip bid for 10 days; type: functional; conditions: HCT-116, ip, 240 h, route intraperitoneal
[6] = system: HCT-116; experiment: Antitumor activity against human HCT116 cells xenografted into SCID mouse at […], ip bid for 10 days; type: functional; conditions: HCT-116, ip, 240 h, dose 4.6 mg/kg, route intraperitoneal
[7] = species: Mus musculus; conditions: in vivo, ip, 10 mg/kg
[8] = system: HCT-116; conditions: dose 9.1 mg/kg; route intraperitoneal
Description: Antitumor activity against human HCT116 cells xenografted into SCID mouse at 9.1 mg/kg, ip bid administered QDx10 schedule relative to control

[9] = in vitro; conditions: mouse, plasma
Description: Protein binding in mouse plasma at 1 ug/ml after 30 mins

[10] = system: HCT-116; experiment: Antitumor activity against human HCT116 cells xenografted into BALB/c mouse at 10 mg/kg, ip bid administered QDx9 schedule relative to control; type: functional; conditions: route intraperitoneal

Cyclin-dependent kinase 1/cyclin B1, sequence (P06493 whole entry): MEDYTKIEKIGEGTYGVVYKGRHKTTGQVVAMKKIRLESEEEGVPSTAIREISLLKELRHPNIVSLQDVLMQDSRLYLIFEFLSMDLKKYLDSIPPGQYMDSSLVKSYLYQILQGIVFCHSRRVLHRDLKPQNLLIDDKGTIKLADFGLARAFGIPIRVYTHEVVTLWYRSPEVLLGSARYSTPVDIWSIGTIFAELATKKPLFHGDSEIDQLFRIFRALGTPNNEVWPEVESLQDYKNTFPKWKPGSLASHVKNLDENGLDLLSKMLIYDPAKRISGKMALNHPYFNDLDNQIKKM
Cyclin-dependent kinase 1/cyclin B1, sequence (P14635 whole entry, further chain): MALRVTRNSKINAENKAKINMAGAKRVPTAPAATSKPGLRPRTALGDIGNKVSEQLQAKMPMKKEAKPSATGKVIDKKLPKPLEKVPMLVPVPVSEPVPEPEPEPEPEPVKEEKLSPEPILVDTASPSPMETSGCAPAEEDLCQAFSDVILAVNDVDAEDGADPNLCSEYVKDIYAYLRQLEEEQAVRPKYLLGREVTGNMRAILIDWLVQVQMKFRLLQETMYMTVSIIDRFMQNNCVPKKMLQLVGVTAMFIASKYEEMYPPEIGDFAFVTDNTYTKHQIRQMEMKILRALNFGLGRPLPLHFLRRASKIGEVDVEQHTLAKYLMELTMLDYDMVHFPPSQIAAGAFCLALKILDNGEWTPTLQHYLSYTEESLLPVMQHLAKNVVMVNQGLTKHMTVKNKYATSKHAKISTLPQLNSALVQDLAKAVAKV

SMILES	clearance [1]	IC50 [2]	IC50 [3]	also measured
O=C(NCC1CC1)c1n[nH]cc1NC(=O)c1c(F)cccc1F	66 mL/min/kg	–	–	–
Nc1c[nH]nc1C(=O)Nc1ccc(F)cc1	–	85000 nM	–	–
O=C(N[C@H]1CC[C@H](O)CC1)c1n[nH]cc1NC(=O)c1c(F)cccc1F	42 mL/min/kg	19 nM	45 nM	–
O=C(NC1CCNCC1)c1n[nH]cc1NC(=O)c1c(F)cc(F)cc1F	71 mL/min/kg	750 nM	–	–
Clc1cncc(Nc2ccccc2)n1	–	7000 nM	–	–
O=C(NC1CCNCC1)c1n[nH]cc1NC(=O)c1c(F)cccc1F [listing 1 of 2 here]	–	–	–	inhibition in vivo at 18.2 mg/kg [4]: 86%; inhibition in vivo at 9.1 mg/kg [5]: 46%; inhibition in vivo at […] [6]: 22%
O=C(NC1CCNCC1)c1n[nH]cc1NC(=O)c1c(F)cccc1Cl	56 mL/min/kg	110 nM	–	–
O=C(Nc1ccccc1)c1n[nH]c2ccccc12	–	3000 nM	–	–
O=C(NC1CCCCC1)c1n[nH]cc1NC(=O)c1c(F)cccc1F	65 mL/min/kg	–	55 nM	–
O=C(Nc1ccc(F)cc1)c1n[nH]cc1NC(=O)c1c(F)cccc1F	40 mL/min/kg	–	10 nM	–
O=C(NC1CCNCC1)c1n[nH]cc1NC(=O)c1c(F)cccc1F [listing 2 of 2 here]	43 mL/min/kg	–	–	AUC [7]: 3422 ng·h/g; T/C [8]: 54%; fraction unbound at 0.5 h, 1 ug/ml [9]: 0.16
N[C@H]1CC[C@H](NC(=O)c2n[nH]cc2NC(=O)c2c(F)cccc2F)CC1	63 mL/min/kg	38 nM	440 nM	–
Cl.O=C(N[C@H]1CCCNC1)c1n[nH]cc1NC(=O)c1c(F)cccc1F	48 mL/min/kg	44 nM	38 nM	–
O=C(CO)Nc1c[nH]nc1C(=O)Nc1ccc(F)cc1	–	730 nM	–	–
COc1cccc(F)c1C(=O)Nc1c[nH]nc1C(=O)NC1CCNCC1	38 mL/min/kg	350 nM	–	T/C [10]: 62%; AUC [7]: 3325 ng·h/g; fraction unbound at 0.5 h, 1 ug/ml [9]: 0.25
c1ccc2[nH]c(-c3cc[nH]n3)nc2c1	–	25000 nM	–	–
